Results on 16 compounds are retold here after patent US8604217B2, “Compound, a process for its preparation, a pharmaceutical composition, use of a compound, a method for modulating or regulating serine/threonine kinases and a serine/threonine kinases modulating agent” (Selvita S.A., priority 2009, dated 2013).

The test system of assay [1] is human prostate adenocarcinoma PC3 cells. Nature of the assay: Growth inhibition test (MTS) on PC3 cells. In kind it is cell-based. The following applies: Homo sapiens, PC-3, 72 hours, read-out: PC-3 ED50.
The test system of assay [2] is human chronic myelocytic leukemia K562 cells. Put plainly: Growth inhibition test (MTS) on K562 cells. In kind it is cell-based. Conditions: Homo sapiens, K562, 72 hours, read-out: K562 ED50. The procedure:
Ten thousand cells of human chronic myelocytic leukemia K562 were inoculated into each well of a 96-well microplate (manufactured by Corning Corp.) using Iscove's MDM medium (culture medium) containing 10% fetal calf serum (FCS). Next day, a dimethyl sulfoxide (DMSO) solution of each test compound prepared in a concentration of 10 mmol/L was further diluted with culture medium to the desired concentrations (0.1, 0.5, 1, 2.5, 5 and 10 micromol/L), and the diluted solution was added to each well. The individual wells were further cultured in 5% carbon dioxide at 37° C. for 72 hours. After completion of the culture, 10 μl MTS (3-(4,5-Dimethyl-2-thiazolyl)-5-(carboxymethoxyphenyl)-2-(4-sulfophenyl)-2H-tetrazolium, inner salt assay (CellTiter96® AQueous One Solution Cell Proliferation Assay, Promega) was added to each well, and culturing was performed in 5% carbon dioxide at 37° C. for 2 hours. Using a microplate spectrophotometer (Synergy 2 multi-mode microplate reader (BioTek)), the absorbance of each well was measured at 490 nm. The value for cells not incorporated with a test compound was designated as 100%. By comparing these values with the absorbance difference obtained at the well in which each test compound was added, the cell viability (% viability) after treatment with the test compound was calculated.

Assay [3] has as its system human myelomonocytic, biphenotypic leukemia MV4-11 cells. Nature of the assay: Growth inhibition test (MTS) on MV4-11 cells. In kind it is cell-based. Conditions: Homo sapiens, MV4-11, 72 hours, read-out: MV-4-11 ED50. The essentials: MV4-
A further assay addresses PIM-1 (Homo sapiens (Human), UniProt P11309). Put plainly: Luminometric kinase assay for PIM1 kinase (Kinase-Glo). Conditions: 1 μM ATP, 25 min at RT. In kind it is biochemical. In short, it runs like this:
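Kinase and substrate reacted in 8 mM MOPS/NaOH pH7.0, 0.2 mM EDTA, 2 mM MgCl2 with 1 μM ATP for 25 min at RT, compounds serially diluted from 1 μM. Remaining ATP read by Kinase-Glo luminescence; IC50 from variable-slope sigmoidal fit.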
Background: Kinase-Glo measures the ATP left after a reaction by luminescence.

The test system of assay [4] is human colorectal adenocarcinoma SW480 cells. Nature of the assay: Growth inhibition test (MTS) on SW480 cells. The format is cell-based. The following applies: Homo sapiens, SW480, 72 hours, read-out: SW480 ED50.

pIC50: −log10 of the molar value.

Sequence of PIM-1 (P11309 whole entry): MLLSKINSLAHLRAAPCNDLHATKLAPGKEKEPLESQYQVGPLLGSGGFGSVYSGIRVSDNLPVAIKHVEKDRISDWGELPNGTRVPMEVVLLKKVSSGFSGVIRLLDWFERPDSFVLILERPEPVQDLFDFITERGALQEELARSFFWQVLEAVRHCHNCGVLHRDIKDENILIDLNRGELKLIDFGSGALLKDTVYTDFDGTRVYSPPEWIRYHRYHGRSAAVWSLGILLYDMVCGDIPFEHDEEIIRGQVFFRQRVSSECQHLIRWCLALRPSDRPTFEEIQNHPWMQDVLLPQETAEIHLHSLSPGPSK

For the compound `C[C@@H]1CN(c2nc3c(Br)c(Br)c(Br)c(Br)c3[nH]2)[C@@H](C)CN1` [Compound 364, 4,5,6,7-tetrabromo-2-((2S,5R)-2,5-dimethylpiperazin-1-yl)-1H-benzo[d]imidazole], the pIC50 in assay [1] is 5.34; in assay [2], 5.28; in assay [3], 5.71; at PIM-1, 7.99; in assay [4] it was 5.90.

As to `Brc1c(Br)c(Br)c2[nH]c(NC3CCCNCC3)nc2c1Br` (centres unmarked) [Compound 366, N-(azepan-4-yl)-4,5,6,7-tetrabromo-1H-benzo[d]imidazol-2-amine], the pIC50 was 5.25 in assay [1]; 5.30 in assay [2]; 6.22 in assay [3]; 8.46 at PIM-1; 5.55 in assay [4].

For the compound `CC(C)NC1CCCCC1Nc1nc2c(Br)c(Br)c(Br)c(Br)c2[nH]1` (centres unmarked) [Compound 369, N1-(4,5,6,7-tetrabromo-1H-benzo[d]imidazol-2-yl)-N2-isopropylcyclohexane-1,2-diamine], the pIC50 in assay [1] is 5.61; in assay [2], 5.45; in assay [3], 5.89; at PIM-1, 7.39; in assay [4], 6.26.

For `Brc1c(Br)c(Br)c2c(nc(N3CCNCC3)n2Cc2ccccc2)c1Br` [Compound 374, 1-benzyl-4,5,6,7-tetrabromo-2-(piperazin-1-yl)-1H-benzo[d]imidazole], the pIC50 is 5.60 in assay [1]; 5.53 in assay [2]; 5.89 in assay [3]; 6.97 at PIM-1; 5.84 in assay [4].

In the case of `Brc1c(Br)c(Br)c2[nH]c(N3CCC(C4CCNCC4)CC3)nc2c1Br` [Compound 386, 4,5,6,7-tetrabromo-2-(4-(piperidin-4-yl)piperidin-1-yl)-1H-benzo[d]imidazole], the pIC50 in assay [1] is 5.56; in assay [2] it was 5.54; in assay [3], 5.48; on PIM-1, 7.24; in assay [4], 5.75.

As for `CCCCCNC1CCCCC1Nc1nc2c(Br)c(Br)c(Br)c(Br)c2[nH]1` (centres unmarked) [Compound 413, N1-(4,5,6,7-tetrabromo-1H-benzo[d]imidazol-2-yl)-N2-pentylcyclohexane-1,2-diamine], the pIC50 was 5.84 in assay [1]; 5.56 in assay [2]; 5.81 in assay [3]; 6.93 on PIM-1; 6.24 in assay [4].

With `CCn1c(N2CCNCC2)nc2c(Br)c(Br)c(Br)c(Br)c21` [Compound 416, 4,5,6,7-tetrabromo-1-ethyl-2-(piperazin-1-yl)-1H-benzo[d]imidazole], the pIC50 was 5.68 in assay [1]; 5.44 in assay [2]; 6.26 in assay [3]; 8.18 on PIM-1; 5.90 in assay [4].

On to `CCCn1c(N2CCNCC2)nc2c(Br)c(Br)c(Br)c(Br)c21` [Compound 417, 4,5,6,7-tetrabromo-2-(piperazin-1-yl)-1-propyl-1H-benzo[d]imidazole], for which the pIC50 in assay [1] is 5.59; in assay [2], 5.30; in assay [3], 6.25; at PIM-1, 8.03; in assay [4] it was 5.59.

Regarding `Brc1c(Br)c(Br)c2[nH]c(NC3CCNCC3)nc2c1Br` [Compound 435, 4,5,6,7-tetrabromo-N-(piperidin-4-yl)-1H-benzo[d]imidazol-2-amine], the pIC50 in assay [1] is 5.24; in assay [2] it was 5.25; in assay [3], 6.17; at PIM-1 it was 8.18; in assay [4], 5.90.

With `CCn1c(N2CCN(CCN3CCNCC3)CC2)nc2c(Br)c(Br)c(Br)c(Br)c21` [Compound 441, 4,5,6,7-tetrabromo-1-ethyl-2-(4-(2-(piperazin-1-yl)ethyl)piperazin-1-yl)-1H-benzo[d]imidazole], the pIC50 in assay [1] was 5.80; in assay [2], 5.78; in assay [3], 6.15; on PIM-1, 7.19; in assay [4], 6.15.

In the case of `CCn1c(N2CCN(CCCN3CCOCC3)CC2)nc2c(Br)c(Br)c(Br)c(Br)c21` [Compound 450], the pIC50 was 5.44 in assay [1]; 5.54 in assay [2]; 6.22 in assay [3]; 6.90 at PIM-1; 6.00 in assay [4].

Turning to `Brc1c(Br)c(Br)c2c(Br)n[nH]c2c1Br` [Compound K64, 3,4,5,6,7-pentabromo-1H-indazole, reference compound], the pIC50 in assay [1] is less than 5.00; in assay [2] it was less than 5.00; in assay [3], less than 5.00; at PIM-1, less than 6.00; in assay [4], 5.04.

For `CN(C)c1nc2c(Br)c(Br)c(Br)c(Br)c2n1CC(=O)O` [Compound K66, 1-carboxymethyl-2-dimethylamino-4,5,6,7-tetrabromo-benzimidazole, reference compound], the pIC50 was less than 5.00 in assay [1]; less than 5.00 in assay [2]; less than 5.00 in assay [3]; less than 6.00 at PIM-1; less than 5.00 in assay [4].

On to `CN(C)c1nc2c(Br)c(Br)c(Br)c(Br)c2[nH]1` [DMAT, 2-dimethylamino-4,5,6,7-tetrabromo-1H-benzimidazole, reference compound], for which the pIC50 is less than 5.00 in assay [1]; less than 5.00 in assay [2]; 5.50 in assay [3]; 7.51 on PIM-1; less than 5.00 in assay [4].

Take `Brc1c(Br)c(Br)c2[nH]nnc2c1Br` [TBB, 4,5,6,7-tetrabromo-1Hbenzotriazole, reference compound]: the pIC50 in assay [1] is less than 5.00; in assay [2], less than 5.00; in assay [3] it was less than 5.00; on PIM-1 it was less than 6.00; in assay [4] it was less than 5.00.

Consider `Brc1c(Br)c(Br)c2[nH]cnc2c1Br` [TBI, 4,5,6,7-tetrabromo-1H-benzimidazole, reference compound], for which the pIC50 in assay [1] was less than 5.00; in assay [2], less than 5.00; in assay [3], less than 5.00; on PIM-1, 6.99; in assay [4] it was 5.14.
